The record followed here is a melting point compilation (Tetko et al.; mined from patent text by program, amines drawn as free bases though some values may be those of a salt).

Each structure is given as a SMILES string.

The melting point is the temperature of the solid-liquid transition. `CC1(C(=O)P(=O)(c2ccccc2)c2ccccc2)CCCCC1`: the melting point was determined as 80 °C.
Under `CCSc1nc(=O)n(CC(C)(C)C)c(=O)n1N` stands 202 to 204 °C; under `Clc1ccc2nc(-n3cccn3)nnc2c1`, 188 °C.
Under `Cc1[nH]c2ccccc2c1C(=O)CCCl` stands 137 to 140 °C.
On to `Cc1cc(N2CCN(CCc3ccc(NS(C)(=O)=O)cc3)CC2)ccc1NS(C)(=O)=O`, for which the melting point lay within 235 to 237 °C.
The value for `COC(=O)c1ccc(NC(=O)CC(=O)C(C)C)cc1` was 54 to 56 °C; that for `Cc1csc(-c2ccc3c(c2)C=C(C(=O)Nc2ccc(CN(C)C4CCOCC4)cc2)CCS3(=O)=O)c1` was 232 to 234 °C; that for `CNc1c([N+](=O)[O-])cnc2ccccc12` was 168 to 170 °C.
The value for `CCOC(=O)COCc1nnc(S)s1` was 80 to 82 °C.
In the case of `COc1ccc2cc3c(N)nn(CN(C)C)c3nc2c1`, the melting point lay within 156 to 158 °C.
The value for `Oc1cccc(SCCCSc2ccc(Cl)cc2)c1` was 102 °C; that for `CC(CNC(=O)OC(C)(C)C)C(=O)NC(CC(=O)OCc1ccccc1)C(N)=O` (mixture of isomers) was 135 to 136 °C; that for `Cc1ccc(C(=O)NCc2cccnc2)c(Nc2ccc3cn[nH]c3c2)n1` was 170 to 172 °C.
In turn, `COc1cc(C(=O)CSCC2CCCCC2)c(OC)cc1Cl` came in with a melting point of 51 to 53 °C.
Under `Cc1ccc2nc3n(c2c1)CCC3` stands 118 to 120 °C; under `O=C(NC(=O)c1ccco1)NC1CCN(Cc2ccc3ccccc3c2)CC1`, 157 to 159 °C.
In turn, `O=C1NCC=NN1c1ccc(Cc2ccc(Cl)cc2)c(Cl)c1` showed a melting point of 196 to 197 °C.
In turn, `CCOc1cc2cc(C(=O)OC)c(C(=O)OC)c(-c3ccnc(Br)c3)c2cc1OC` gave a melting point of 203 to 204 °C.
With `CCCNC(=O)NCCCCCN1CCC(CNC(=O)c2cc(Cl)c(N)cc2OC)CC1`, the melting point was 144 to 147 °C.
`c1ccc(-c2nn3ccccc3c2-c2ccnnc2)cc1`: the melting point was in the range of 204 to 205 °C.
The value for `CN(CCCNc1ncc(Cc2ccc(Br)cc2)c(=O)[nH]1)c1ccccn1` was 178 to 179 °C.
`N#Cc1ccc(Oc2ccc(S(=O)(=O)NCc3ccc4ccccc4n3)cc2)c(Cl)c1` returned a melting point of 83 to 86 °C.
Under `CCOC(=O)c1nn(-c2ccc(N(C)C)cc2)c(=O)c2c(N)scc12` stands 211 to 213 °C; under `COCOc1nn(-c2ccccc2)cc1/C=C/c1csc(C(C)(C)C)n1`, 112 to 113 °C.
Under `Cc1cc(-c2nnc3c4ccccc4c(OCc4cncn4C)nn23)no1` stands 236 to 238 °C; under `Cc1nnc(S)n1-c1ccccc1F`, 119 to 120 °C.
As for `Cc1cccc(CCC(=O)Cn2ccnc2)c1`, the melting point lay within 160 to 162 °C.
The value for `COc1c(Br)cc(N)cc1C(C)=O` was 93 to 94 °C.
In turn, `CSC1C(=O)Nc2ccc(C(F)(F)F)cc21` (centres undefined) registered a melting point of 136 to 138 °C.
Take `COc1ccc2c(=O)[nH]nc(-c3ccccc3)c2c1`: the melting point lay in the range of 230 to 235 °C.
Consider `Cc1cccc(OCc2cccc(OCc3ccc4ccccc4n3)c2)c1C(=O)O`, for which the melting point fell in the range of 154 to 156 °C.
The value for `O=[N+]([O-])c1c(Cl)cccc1CS(=O)(=O)c1ccccc1` was 141 to 142 °C; that for `COC(=O)C1=C(C)NC(C)=C(P2(=O)OC(C)CC(C)O2)C1c1cccc([N+](=O)[O-])c1` (centres undefined) was 225 to 226 °C; that for `CC1CCN(c2ccc([N+](=O)[O-])cc2C(=O)c2ccc(Cl)cc2)CC1` was 136 °C.
Under `FC(F)(F)Oc1cccc(C=Cc2nc(CNc3ccc(CCCCn4ccnn4)cc3)co2)c1` stands 91 to 93 °C; under `CSCc1nc(C)c(C)c(O)n1`, 166 °C.
Under `CSc1ccc(-n2c(-c3ccc(Cl)cc3)nc(SC)c(C#N)c2=O)cc1` stands 206 to 207 °C; under `N#Cc1c(CNC(=O)c2ccc(OC(F)(F)F)cc2)nn(-c2ccc(Cl)cc2Cl)c1-c1ccc(Cl)cc1`, 180 °C.
`C#CCOc1cc(C(=O)OC)ccc1F` returned a melting point of 60.5 to 61.5 °C.
In turn, `NC(=O)N(O)CCNC(=O)Cc1cccc(Oc2ccccc2)c1` yielded a melting point of 150 to 152 °C.
`C#Cc1cnc(OCCC)c(-c2nc3c(CC)nn(CCN4CCOCC4)c3c(=O)[nH]2)c1`: the melting point is 137 to 139 °C.
As for `CSc1cc(-c2ccc(Cl)cc2)nc(-c2cccc(Cl)c2)c1`, the melting point is 98.4 °C.
Under `Cc1[nH]c2ccccc2c1CCN1CCC(Oc2ccc(F)cc2)CC1` stands 97 to 99 °C; under `CCOC(=O)C(C)(C)Oc1ccc(C#N)cc1C`, 46 °C; under `FC(F)(F)C(=C1SCCCS1)c1ccccc1`, 87 to 88 °C.
Compound `CN(C)C(=O)N(N=Cc1ccc(OC(F)(F)C(F)F)cc1)C(=N)NN=Cc1ccc(OC(F)(F)C(F)F)cc1` gave a melting point of 142 to 144 °C.
Take `CC(C)c1cc(C(C)(C)C)cc(-c2ccc(F)cc2)c1O`: the melting point is 109 to 111 °C.
The value for `O=C(c1ccccc1)c1c(-c2ccccc2)sc2cc(O)ccc12` was 221 to 222 °C; that for `COc1cc(O)c(C(=O)CC(=O)C(C)(C)C#N)c(OC)c1` was 112 to 113 °C.
For the compound `CC(c1oc2ccccc2c(=O)c1-c1cccc(F)c1)n1nc(-c2cccc3c2oc2ccccc23)c2c(N)ncnc21` (centres undefined), the melting point lay in the range of 238 to 240 °C.
The value for `CC(=O)Nc1ccc(CCC2CSC(=O)NN2)cc1` (centres undefined) was 235 to 240 °C; that for `NC(=O)NN=Cc1ccc(Oc2ccc3c(c2)OCO3)cc1` was 225 to 226 °C.
On to `CC(C)N1Cc2c(-n3c(=O)cc(C(F)(F)F)[nH]c3=O)ccc(Cl)c2C1=O`, for which the melting point is over 250 °C.
Compound `CS(=O)(=O)N1CCC(NC(=O)Nc2ccc(OC(F)(F)F)cc2)CC1` came in with a melting point of 233 to 234 °C.
The value for `C/C=C/c1cccc2c(=O)c(C)c(C(N)=O)oc12` was 243 to 245 °C; that for `Cc1noc(NS(=O)(=O)c2ccccc2-c2ccc(-c3ncco3)cc2COCC(C)C)c1C` was 86 to 98 °C.
The value for `Cc1nc(N)cc(-n2ccc3ccccc32)n1` was 176 to 177 °C; that for `Cc1nc(C=O)c(C)[nH]1` was 164 to 166 °C; that for `CNC(=O)c1nc(C)n2c1CN=C(c1ccccc1)c1cc(Cl)ccc1-2` was 260 to 263 °C.
As to `Cc1cc(C)nc(NC(=O)NS(=O)(=O)c2cccc3c2CCCC3)n1`, the melting point is 152 to 155 °C.
Under `O=C(O)C(=O)CC(=O)c1cccn1Cc1ccc2ccccc2c1` stands 160 to 162 °C.
Take `CC(C)(C)C(=O)c1ccc(C(N)=O)cc1`: the melting point lay in the range of 138 to 140 °C.
With `CC(C)CC(C(=O)O)c1cc(OCC2CC2)c(-c2ccc3nonc3c2)cc1F` (centres undefined), the melting point lay in the range of 110 to 111 °C.
`CSCCC(CS)NC(=O)OC(C)(C)C` (centres undefined) returned a melting point of 37 °C.
`CCCCOC(=O)C(C#N)C(=O)c1ccc(Cl)cc1[N+](=O)[O-]` (centres undefined) displayed a melting point of 56 to 58 °C.
Under `COc1ccc(OCC2CO2)c(C(=O)Nc2cccc3[nH]ccc23)c1` (centres undefined) stands 122 °C.
Under `CN(C)Cc1ccc(CNC(=O)C2Cc3ccccc3N2S(=O)(=O)c2ccc(-c3ccccc3C(F)(F)F)cc2)cc1` (centres undefined) stands 53 °C; under `CCCCCCN1CCN(Cc2ccc(NC(=S)Nc3ccccc3N)cc2)C(=O)C1=O`, 160 °C.
The value for `CCOC(=O)c1ccc(S(=O)(=O)C(C)(C)C)cc1Cl` was 82.4 to 83 °C; that for `CCOC(=O)c1cc(N)ccc1OC(C)=O` was 82.5 to 83 °C; that for `CC(=O)O[C@@H]1C(=O)N[C@@H]1c1ccccc1` (relative stereo) was 150 to 151 °C.
For the compound `Cc1cnc(Cn2ncc(-c3ccc(S(C)(=O)=O)cc3)c(-c3ccc(F)cc3)c2=O)s1`, the melting point was 114 to 116 °C.
In turn, `Cc1ccc(C(=O)Nc2c[nH]nc2C(=O)NCCOC(C)C)cn1` displayed a melting point of 168 to 169 °C.
Take `COc1ccc(C(C)N(C)CCCOc2ccc(S(=O)(=O)c3c(C(C)C)n(C)c4ccccc34)cc2)cc1OC` (centres undefined): the melting point was 96 °C.
The value for `CCC(C)c1ccc(-n2c(-c3cc(C)c(OCCO)c(C)c3)nc3ccccc3c2=O)cc1` (centres undefined) was 152 to 153 °C.
Under `CON=C1CN(c2c(F)c(N)c3c(=O)c(C(=O)O)cn(C4CC4)c3c2F)CC12CN(C(=O)OC(C)(C)C)C2` stands 256 to 257 °C.
Under `CC(Cc1ccc(OCCO)cc1)NCC(O)c1ccccc1F` (centres undefined) stands 80 to 95 °C.
Consider `O=C1CCCCN1[C@@H]1c2cc(C(F)(F)C(F)(F)C(F)(F)F)ccc2OC(CF)(CF)[C@H]1O` (relative stereo), for which the melting point lay in the range of 156 to 157 °C.
The value for `CN1C(=O)Nc2ccc(-c3cccc(Cl)c3)cc2C1(C)C1CC1` (centres undefined) was 193 to 194 °C; that for `Oc1ccc(-c2c(Br)ccc3sc4ccccc4c23)cc1` was 185 to 186 °C.
With `[N-]=[N+]=NC(=O)c1ccc2c(c1)C(=O)OC2=O`, the melting point lay in the range of 100 to 103 °C.
Under `COC(=O)c1nc(Cl)cnc1N=S(C)C` stands 167 to 169 °C.
`CN(Cc1ccccc1)c1ccc(C(=O)c2ccccc2)cc1N` returned a melting point of 93 to 94 °C.
The value for `N=C(Cc1nc2cnc3ccc(Cl)cc3c2n1-c1ccccc1Cl)NO` was 114 °C.
The compound `NC(=O)CCc1ccc(Oc2ccc3c(c2)S(=O)(=O)N=C2CCCN23)cc1` showed a melting point of 178 to 183 °C.
Regarding `O=C(O)c1cnc(-c2ccc(OCc3ccccc3)cc2)nc1`, the melting point came to 299 °C.
Under `CCCn1c(=O)n([C@@H]2CCN(CCCCN3C(=O)c4cc(Cl)ccc4S3(=O)=O)[C@@H](C#N)C2)c2ccccc21` (relative stereo) stands 159 to 160 °C.
For `CCOC(=O)c1c(O)c2cc(F)ccc2c(=O)n1CC(C)C`, the melting point was 91 to 92 °C.
Under `O=Cc1ccccc1-c1ccc(C(=O)Nc2ccc3cccnc3c2)cc1` stands 258 to 260 °C.
